From ChEMBL document CHEMBL1201862, “PubChem BioAssay data set” (2004)
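Dose response: 5 concentrations. Exposure: 48 h. Format: 96-well plates. Endpoint: linear interpolation; highest concentration if not reached. The concentration for 50% growth inhibition is given as GI50.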 Calls of active or inactive are those of the source. Cut-off read from the data, not from the text of the source: active = GI50 up to about 1.1 µM and inactive = higher.

Columns and labels:
Assay in all cases: NCI anticancer screen, dose series, 48 h
MDA-N = tested on: MDA-N
NCI-H226 = tested on: NCI-H226
K562 = tested on: K562
786-0 = tested on: 786-0
DU-145 = tested on: DU-145
UACC-257 = tested on: UACC-257
HL-60 = tested on: HL-60
MDA-MB-435 = tested on: MDA-MB-435
Malme-3M = tested on: Malme-3M
SF-539 = tested on: SF-539
SN12C = tested on: SN12C
KM12 = tested on: KM12
MDA-MB-231 = tested on: MDA-MB-231
RPMI-8226 = tested on: RPMI-8226
BT-549 = tested on: BT-549
CCRF-CEM = tested on: CCRF-CEM
UACC-62 = tested on: UACC-62
NCI/ADR-RES = tested on: NCI/ADR-RES
IGROV-1 = tested on: IGROV-1
EKVX = tested on: EKVX

SMILES	GI50 (MDA-N)	GI50 (NCI-H226)	GI50 (K562)	GI50 (786-0)	GI50 (DU-145)	GI50 (UACC-257)	GI50 (HL-60)	GI50 (MDA-MB-435)	GI50 (Malme-3M)	GI50 (SF-539)	GI50 (SN12C)	GI50 (KM12)	GI50 (MDA-MB-231)	GI50 (RPMI-8226)	GI50 (BT-549)	GI50 (CCRF-CEM)	GI50 (UACC-62)	GI50 (NCI/ADR-RES)	GI50 (IGROV-1)	GI50 (EKVX)
N#C/C(=C\c1ccc([N+](=O)[O-])o1)c1n[nH]c(Cc2ccccc2)n1	1 µM (active)	1.65 µM (inactive)	1.55 µM (inactive)	0.847 µM (active)	1.57 µM (inactive)	1.91 µM (inactive)	3.06 µM (inactive)	1.67 µM (inactive)	1.94 µM (inactive)	1.32 µM (inactive)	1.49 µM (inactive)	2.19 µM (inactive)	1.57 µM (inactive)	0.335 µM (active)	2.53 µM (inactive)	0.265 µM (active)	1.52 µM (inactive)	2.79 µM (inactive)	1.4 µM (inactive)	2.72 µM (inactive)
O=[N+]([O-])c1cc2[nH]nnc2c2nonc12	20.6 µM (inactive)	19.3 µM (inactive)	22.8 µM (inactive)	38.5 µM (inactive)	33.3 µM (inactive)	22.9 µM (inactive)	5.45 µM (inactive)	13.1 µM (inactive)	35.2 µM (inactive)	22.8 µM (inactive)	41.5 µM (inactive)	33 µM (inactive)	32.7 µM (inactive)	24 µM (inactive)	11.1 µM (inactive)	14.4 µM (inactive)	> 10 µM (inactive)	48.3 µM (inactive)	51.9 µM (inactive)	65.8 µM (inactive)
O=C(Nc1ccc(Cl)cc1)c1cc(S(=O)(=O)Nc2nc3cccnc3[nH]2)c(SSc2cc(Cl)c(C(=O)Nc3ccc(Cl)cc3)cc2S(=O)(=O)Nc2nc3cccnc3[nH]2)cc1Cl	> 100 µM (inactive)	> 100 µM (inactive)	3.86 µM (inactive)	> 100 µM (inactive)	> 100 µM (inactive)	> 100 µM (inactive)	> 100 µM (inactive)	> 100 µM (inactive)	> 100 µM (inactive)	> 100 µM (inactive)	> 100 µM (inactive)	> 100 µM (inactive)	> 100 µM (inactive)	> 100 µM (inactive)	> 100 µM (inactive)	> 100 µM (inactive)	> 100 µM (inactive)	> 100 µM (inactive)	> 100 µM (inactive)	> 100 µM (inactive)
O=[N+]([O-])c1cccc2nc3ccccc3c(NCCCNc3c4ccccc4nc4cccc([N+](=O)[O-])c34)c12	0.0123 µM (active)	0.0697 µM (active)	< 0.01 µM (active)	0.0146 µM (active)	< 0.0164 µM (active)	0.0556 µM (active)	0.12 µM (active)	0.0167 µM (active)	0.0378 µM (active)	0.0161 µM (active)	< 0.0169 µM (active)	< 0.013 µM (active)	< 0.0122 µM (active)	< 0.01 µM (active)	0.0855 µM (active)	0.0251 µM (active)	0.0513 µM (active)	0.249 µM (active)	0.128 µM (active)	0.0312 µM (active)
C[C@H]1[C@H](C)CC[C@]2(C(=O)OC3OC(CO)C(O)C(O)C3O)CC[C@]3(C)C(=CC[C@@H]4[C@@]5(C)C[C@@H](O)[C@@H]6OC(=O)c7cc(O)c(O)c(O)c7-c7c(cc(O)c(O)c7O)C(=O)OC[C@]6(CO)[C@@H]5CC[C@]43C)[C@H]12 (stereo not given in full)	21.5 µM (inactive)	67.8 µM (inactive)	45.7 µM (inactive)	14 µM (inactive)	> 100 µM (inactive)	> 78.3 µM (inactive)	25.9 µM (inactive)	17.8 µM (inactive)	> 100 µM (inactive)	> 100 µM (inactive)	30.5 µM (inactive)	24.2 µM (inactive)	12.4 µM (inactive)	66.7 µM (inactive)	> 100 µM (inactive)	20.8 µM (inactive)	70.6 µM (inactive)	> 62.4 µM (inactive)	> 86.3 µM (inactive)	36.7 µM (inactive)
